These results are taken from patent US8840939B2, “Vigna unguiculata seed extract and compositions containing same” (Laboratoires Expanscience, priority 2009, dated 2014).

Assay [1] relates to IL1α. Kind of assay: Release of IL1α by PMA-stimulated keratinocytes (ELISA). In kind it is cell-based, Human. The following applies: 10^−7 M dexamethasone, NCTC2544 keratinocytes, 0.1 μg/ml PMA 24 hours. How it is done:
(§1) The anti-inflammatory effect of Vigna hydrolysate was evaluated by measuring the cytokines (IL1α, IL8) produced by keratinocytes in response to stimulation by PMA.
(§2) Human keratinocytes (NCTC2544 cell line) were preincubated for 24 hours with 0.05% (w/v) Vigna hydrolysate or the reference molecule (10^−7 M dexamethasone). The cells were then treated with 0.1 μg/ml PMA, always in the presence of Vigna hydrolysate or dexamethasone, for 24 hours. The quantities of IL1α and IL8 released in the culture medium were evaluated by ELISA.
(§3) The results were analyzed statistically by one-way analysis of variance (ANOVA) followed by Tukey's test:
(§4) The percentage of inhibition in relation to the stimulated control (PMA) was calculated.
Background: In an ELISA, binding on a coated surface is turned into a signal by an enzyme label.

Assay [2] has as its system IL8. The assay is described as follows: Release of IL8 by PMA-stimulated keratinocytes (ELISA). In kind it is cell-based, Human. Conditions: 10^−7 M dexamethasone, NCTC2544 keratinocytes, 0.1 μg/ml PMA 24 hours. As to the method:
as §1, §2, §3, §4

The test system of assay [3] is MMP1. The assay is described as follows: Gene expression of MMP1 by fibroblasts (RT-PCR). In kind it is cell-based. Conditions: 5 ng/ml TGFβ1, normal human fibroblasts, 24 hours. How it is done:
(§5) The effect of Vigna hydrolysate on the modulation of the extracellular matrix of the dermis was evaluated on a dermal fibroblast model wherein the gene expression of elastin and MMP1 was studied.
(§6) Normal human fibroblasts were treated for 24 hours with 0.01% and 0.05% (w/v) Vigna hydrolysate or with 5 ng/ml TGFβ1 (reference). The gene expression of elastin and MMP1 was analyzed by quantitative real-time RT-PCR.
(§7) The results were analyzed statistically by one-way analysis of variance (ANOVA) followed by Dunnett's test:
(§8) The level of gene expression was expressed in relative quantity (RQ) and the effect of the treatment in relation to the control cells in percentage of increase or inhibition.

The subject of assay [4] is elastin. The assay is described as follows: Gene expression of elastin by fibroblasts (RT-PCR). Conditions: 5 ng/ml TGFβ1, normal human fibroblasts, 24 hours. In kind it is cell-based. How it is done: as §5, §6, §7, §8

By inhibition is commonly meant the relative decrease from the control value, in per cent.

For the molecule `C[C@@H]1C[C@H]2[C@@H]3CCC4=CC(=O)C=C[C@]4(C)[C@@]3(F)[C@@H](O)C[C@]2(C)[C@@]1(O)C(=O)CO` [dexamethasone], the “IL1α” value in assay [1] was 14.0 ± 3.5 pg/mL. Moreover, the inhibition at 0.1 µM in assay [1] (Homo sapiens, NCTC-2544, read-out: IL1α, percentage of inhibition in relation to the stimulated control (PMA) (converted)) was 82%; in assay [2] (Homo sapiens, NCTC-2544, read-out: IL8, percentage of inhibition in relation to the stimulated control (PMA) (converted)), 81%. Moreover, the “IL8” value in assay [2] is 6.0 ± 0.2 ng/mL.
With TGFβ1: 5 ng/ml TGFβ1 (reference), in assay [3], the “MMP1 gene expression, percentage of inhibition in relation to the control cells” value is recorded as −88% and the “MMP1 gene expression, relative quantity (RQ)” value amounted to 0.12. Moreover, in assay [4], the “ELASTIN gene expression, percentage of increase in relation to the control cells” value is “+559%” and the “ELASTIN gene expression, relative quantity (RQ)” value is listed as 6.59.
